The record followed here is patent US20240294541A1, “COMPOUNDS CONSTITUTING C20-MODIFIED SALINOMYCIN DERIVATIVES, A METHOD FOR OBTAINING THE SAME, A COMPOSITION CONTAINING THE SAME AND A USE OF SAID COMPOUNDS” (FILECLO SPOLKA Z OGRANICZONA ODPOWIEDZIALNOSCIA, priority 2021, published 2024).

Common to all, as to format: cell-based
Assay [1] relates to BALB/3T3 (normal mouse fibroblasts). In words: In vitro cytotoxicity, SRB assay, normal BALB/3T3 fibroblasts. Particulars: Table 5; BALB/3T3 normal mouse fibroblasts; read-out: IC50 (nM) BALB3T3 normal cells. (In SRB staining, fixed cells bind dye roughly in proportion to their protein.)
Assay [2] deals with A2780Cis (cisplatin-resistant human ovarian cancer). In words: In vitro cytotoxicity, SRB assay, A2780Cis. To be noted: for IC50: Homo sapiens, A2780cis, read-out: IC50 (nM) A2780Cis.
The subject of assay [3] is MV-4-11 (human biphenotypic leukaemia). The assay is described as follows: In vitro cytotoxicity, MTT assay, MV-4-11. Particulars: for IC50: Homo sapiens, MV4-11, read-out: IC50 (nM) MV4-11.

The IC50 is the concentration at which inhibition is half-maximal.

Take `CC[C@@H](C(=O)[C@@H](C)[C@@H](O)[C@H](C)[C@@H]1O[C@@H]([C@@H](CC)C(=O)O)CC[C@@H]1C)[C@H]1O[C@]2(C=C[C@@H](NC(=O)OCc3ccccc3Cl)[C@]3(CC[C@@](C)([C@H]4CC[C@](O)(CC)[C@H](C)O4)O3)O2)[C@H](C)C[C@@H]1C` [FLC-00484-1•Na]: the IC50 in assay [1] was found to be 23.9 nM; in assay [2] it was 0.25 nM; in assay [3], 0.59 nM. Further, in assay [2], the “SI A2780Cis” value was 95.4. Further, the “SI MV4-11” value in assay [3] is on record as 40.7.
Consider `CC[C@@H](C(=O)[C@@H](C)[C@@H](O)[C@H](C)[C@@H]1O[C@@H]([C@@H](CC)C(=O)O)CC[C@@H]1C)[C@H]1O[C@]2(C=C[C@@H](NC(=O)OCc3cc(Cl)cc(Cl)c3)[C@]3(CC[C@@](C)([C@H]4CC[C@](O)(CC)[C@H](C)O4)O3)O2)[C@H](C)C[C@@H]1C` [FLC-00485-1•Na], for which the values for the 50% inhibitory concentration (IC50) in assay [1], in assay [2] and in assay [3] were 106 nM, 4.62 nM and 20 nM, respectively. For the same compound, the “SI A2780Cis” value in assay [2] is on record as 23.0. Further, the “SI MV4-11” value in assay [3] is listed as 5.3.
In the case of `CC[C@@H](C(=O)[C@@H](C)[C@@H](O)[C@H](C)[C@@H]1O[C@@H]([C@@H](CC)C(=O)O)CC[C@@H]1C)[C@H]1O[C@]2(C=C[C@@H](NC(=O)c3ccncc3)[C@]3(CC[C@@](C)([C@H]4CC[C@](O)(CC)[C@H](C)O4)O3)O2)[C@H](C)C[C@@H]1C` [FLC-00487-1•Na], the half-inhibitory concentration (IC50) in assay [1] is 3650 nM; in assay [2], 45.9 nM; in assay [3], 133 nM. For the same compound, the “SI A2780Cis” value in assay [2] was determined as 79.6. The “SI MV4-11” value in assay [3] was determined as 27.5.
In the case of `CC[C@@H](C(=O)[C@@H](C)[C@@H](O)[C@H](C)[C@@H]1O[C@@H]([C@@H](CC)C(=O)O)CC[C@@H]1C)[C@H]1O[C@]2(C=C[C@@H](NC(=O)C(=O)NCc3ccncc3)[C@]3(CC[C@@](C)([C@H]4CC[C@](O)(CC)[C@H](C)O4)O3)O2)[C@H](C)C[C@@H]1C` [FLC-00489-1•Na], in assay [1], the IC50 was 4920 nM. Moreover, in assay [2], the “SI A2780Cis” value was 28.0 and the IC50 was determined as 175 nM. Moreover, in assay [3], the “SI MV4-11” value was 14.6 and the IC50 is 338 nM.
The corresponding values for `CC[C@@H](C(=O)[C@@H](C)[C@@H](O)[C@H](C)[C@@H]1O[C@@H]([C@@H](CC)C(=O)O)CC[C@@H]1C)[C@H]1O[C@]2(C=C[C@@H](NC(=O)C(Cl)Cl)[C@]3(CC[C@@](C)([C@H]4CC[C@](O)(CC)[C@H](C)O4)O3)O2)[C@H](C)C[C@@H]1C` [FLC-00493-1•Na] are 57.7 nM, 26.9, 2.14 nM, 10.6 and 5.43 nM.
For `CC[C@@H](C(=O)[C@@H](C)[C@@H](O)[C@H](C)[C@@H]1O[C@@H]([C@@H](CC)C(=O)O)CC[C@@H]1C)[C@H]1O[C@]2(C=C[C@@H](NC(=O)OCCN(C)C)[C@]3(CC[C@@](C)([C@H]4CC[C@](O)(CC)[C@H](C)O4)O3)O2)[C@H](C)C[C@@H]1C` [FLC-00497-1•Na] the same measures were 2280 nM, 8.2, 278 nM, 8.2 and 278 nM.
Take `CC[C@@H](C(=O)[C@@H](C)[C@@H](O)[C@H](C)[C@@H]1O[C@@H]([C@@H](CC)C(=O)O)CC[C@@H]1C)[C@H]1O[C@]2(C=C[C@@H](NC(=O)OCCCN(C)C)[C@]3(CC[C@@](C)([C@H]4CC[C@](O)(CC)[C@H](C)O4)O3)O2)[C@H](C)C[C@@H]1C` [FLC-00498-1•Na]: the half-inhibitory concentration (IC50) in assay [1] came to 5010 nM; in assay [2], 758 nM; in assay [3] it was 1560 nM. The “SI A2780Cis” value in assay [2] is on record as 6.6. Besides, in assay [3], the “SI MV4-11” value is listed as 3.2.
